Assay results as given in US20200239530A1, “COMPOUNDS AND METHODS OF MODULATING PROTEIN DEGRADATION” (Vividion Therapeutics, Inc., priority 2017, published 2020).
Where two headings read alike, the source gives them in different places.

What was measured:
Experiment in all cases: Competitive cysteine profiling, probe competition (Table 2B)
Type in all cases: binding
[1] = molecular target: T1, Q9H1A4 (Homo sapiens, UniProt Q9H1A4)
T1 construct: Cells were resuspended in cold PBS on ice and sonicated with a probe sonicator to achieve lysis; endogenous in cells
T1 sequence (Q9H1A4 whole entry): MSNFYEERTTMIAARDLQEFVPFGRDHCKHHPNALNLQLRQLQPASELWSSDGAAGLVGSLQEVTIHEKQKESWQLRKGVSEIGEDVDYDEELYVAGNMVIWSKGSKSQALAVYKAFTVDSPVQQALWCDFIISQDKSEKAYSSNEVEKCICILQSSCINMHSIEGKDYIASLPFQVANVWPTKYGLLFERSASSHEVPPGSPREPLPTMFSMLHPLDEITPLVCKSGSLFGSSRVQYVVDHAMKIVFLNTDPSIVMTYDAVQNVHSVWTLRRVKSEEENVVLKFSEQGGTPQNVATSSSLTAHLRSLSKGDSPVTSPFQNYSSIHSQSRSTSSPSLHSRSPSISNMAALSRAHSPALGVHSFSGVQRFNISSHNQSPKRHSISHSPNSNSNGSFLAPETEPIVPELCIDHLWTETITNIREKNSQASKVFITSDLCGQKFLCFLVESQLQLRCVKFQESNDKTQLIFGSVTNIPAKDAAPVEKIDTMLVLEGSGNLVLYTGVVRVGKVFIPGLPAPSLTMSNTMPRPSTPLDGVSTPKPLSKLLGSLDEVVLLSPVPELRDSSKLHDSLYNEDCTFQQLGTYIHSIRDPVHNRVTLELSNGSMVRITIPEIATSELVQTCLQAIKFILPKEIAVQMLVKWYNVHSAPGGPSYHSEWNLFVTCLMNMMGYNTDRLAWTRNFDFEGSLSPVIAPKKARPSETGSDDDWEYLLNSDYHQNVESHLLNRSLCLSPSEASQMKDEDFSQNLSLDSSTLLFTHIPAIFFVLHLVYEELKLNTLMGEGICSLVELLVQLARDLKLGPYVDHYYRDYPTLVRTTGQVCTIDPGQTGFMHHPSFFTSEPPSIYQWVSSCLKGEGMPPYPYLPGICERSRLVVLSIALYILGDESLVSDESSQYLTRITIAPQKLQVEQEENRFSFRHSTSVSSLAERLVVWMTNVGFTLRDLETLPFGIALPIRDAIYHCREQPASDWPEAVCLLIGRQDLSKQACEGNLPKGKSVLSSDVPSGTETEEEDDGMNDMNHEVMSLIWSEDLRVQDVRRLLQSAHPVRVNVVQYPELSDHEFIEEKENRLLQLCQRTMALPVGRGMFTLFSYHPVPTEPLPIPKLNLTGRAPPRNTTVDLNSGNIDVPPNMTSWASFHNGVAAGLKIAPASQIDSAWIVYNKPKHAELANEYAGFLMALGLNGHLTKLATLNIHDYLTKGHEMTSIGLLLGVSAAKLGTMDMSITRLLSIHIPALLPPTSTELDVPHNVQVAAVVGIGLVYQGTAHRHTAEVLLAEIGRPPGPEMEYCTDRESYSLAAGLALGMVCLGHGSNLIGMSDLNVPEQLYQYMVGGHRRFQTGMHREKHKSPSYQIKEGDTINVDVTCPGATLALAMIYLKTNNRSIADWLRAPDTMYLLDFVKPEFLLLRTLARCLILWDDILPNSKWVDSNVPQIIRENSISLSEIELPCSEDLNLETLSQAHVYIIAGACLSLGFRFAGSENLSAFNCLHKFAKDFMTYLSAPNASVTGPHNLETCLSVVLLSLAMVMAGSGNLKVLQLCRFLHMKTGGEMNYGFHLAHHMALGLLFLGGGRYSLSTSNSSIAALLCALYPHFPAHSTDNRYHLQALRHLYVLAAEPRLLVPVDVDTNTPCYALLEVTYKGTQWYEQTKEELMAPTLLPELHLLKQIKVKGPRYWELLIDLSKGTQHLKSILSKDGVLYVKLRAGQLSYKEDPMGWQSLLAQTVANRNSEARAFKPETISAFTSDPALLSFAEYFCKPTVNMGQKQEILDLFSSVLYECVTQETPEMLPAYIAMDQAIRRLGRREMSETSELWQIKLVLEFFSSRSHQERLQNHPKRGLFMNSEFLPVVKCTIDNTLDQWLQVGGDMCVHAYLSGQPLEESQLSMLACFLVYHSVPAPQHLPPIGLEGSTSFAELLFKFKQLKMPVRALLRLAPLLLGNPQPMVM
Text: (§1) The following 96-well sample prep protocol was used for sample preparation.

[2] = molecular target: T2, Q9P203 (Homo sapiens, UniProt Q9P203)
T2 construct: 200 μL of lysate containing 5 mg/ml proteome was treated with 2 μL of 100× compound stock; endogenous in cells
T2 sequence (Q9P203 1-1132): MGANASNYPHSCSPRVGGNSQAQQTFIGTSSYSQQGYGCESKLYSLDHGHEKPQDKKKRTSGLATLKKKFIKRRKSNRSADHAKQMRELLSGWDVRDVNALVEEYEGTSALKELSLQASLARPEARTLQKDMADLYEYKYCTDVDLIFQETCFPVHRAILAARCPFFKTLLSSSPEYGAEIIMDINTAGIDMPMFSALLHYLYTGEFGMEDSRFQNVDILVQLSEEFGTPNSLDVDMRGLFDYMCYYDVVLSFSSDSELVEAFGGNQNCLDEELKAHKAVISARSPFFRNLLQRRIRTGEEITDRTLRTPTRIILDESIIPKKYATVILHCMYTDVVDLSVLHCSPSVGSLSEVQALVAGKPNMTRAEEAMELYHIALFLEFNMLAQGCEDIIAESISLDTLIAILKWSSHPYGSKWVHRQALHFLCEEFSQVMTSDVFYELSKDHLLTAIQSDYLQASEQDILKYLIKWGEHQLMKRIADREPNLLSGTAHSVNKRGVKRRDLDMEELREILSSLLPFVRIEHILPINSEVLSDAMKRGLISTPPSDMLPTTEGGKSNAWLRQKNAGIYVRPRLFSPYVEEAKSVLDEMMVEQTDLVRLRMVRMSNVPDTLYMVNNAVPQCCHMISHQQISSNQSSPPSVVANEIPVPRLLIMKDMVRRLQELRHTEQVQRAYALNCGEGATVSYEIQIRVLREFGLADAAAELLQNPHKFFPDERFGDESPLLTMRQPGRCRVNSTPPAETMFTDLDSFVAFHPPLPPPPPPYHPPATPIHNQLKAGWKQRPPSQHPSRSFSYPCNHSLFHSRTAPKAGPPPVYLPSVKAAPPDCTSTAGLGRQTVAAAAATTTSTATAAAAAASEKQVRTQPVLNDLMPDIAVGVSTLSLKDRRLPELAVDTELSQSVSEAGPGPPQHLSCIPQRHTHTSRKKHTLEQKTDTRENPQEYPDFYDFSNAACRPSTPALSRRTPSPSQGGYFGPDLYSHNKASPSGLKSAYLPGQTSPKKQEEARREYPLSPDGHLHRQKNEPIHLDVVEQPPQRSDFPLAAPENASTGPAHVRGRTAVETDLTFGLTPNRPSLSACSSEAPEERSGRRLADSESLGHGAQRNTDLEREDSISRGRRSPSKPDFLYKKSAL
Text: as §1

[3] = molecular target: T3, Q96Q07 (Homo sapiens, UniProt Q96Q07)
T3 construct: 200 μL of lysate containing 5 mg/ml proteome was treated with 2 μL of 100× compound stock; endogenous in cells
T3 sequence (Q96Q07 1-612): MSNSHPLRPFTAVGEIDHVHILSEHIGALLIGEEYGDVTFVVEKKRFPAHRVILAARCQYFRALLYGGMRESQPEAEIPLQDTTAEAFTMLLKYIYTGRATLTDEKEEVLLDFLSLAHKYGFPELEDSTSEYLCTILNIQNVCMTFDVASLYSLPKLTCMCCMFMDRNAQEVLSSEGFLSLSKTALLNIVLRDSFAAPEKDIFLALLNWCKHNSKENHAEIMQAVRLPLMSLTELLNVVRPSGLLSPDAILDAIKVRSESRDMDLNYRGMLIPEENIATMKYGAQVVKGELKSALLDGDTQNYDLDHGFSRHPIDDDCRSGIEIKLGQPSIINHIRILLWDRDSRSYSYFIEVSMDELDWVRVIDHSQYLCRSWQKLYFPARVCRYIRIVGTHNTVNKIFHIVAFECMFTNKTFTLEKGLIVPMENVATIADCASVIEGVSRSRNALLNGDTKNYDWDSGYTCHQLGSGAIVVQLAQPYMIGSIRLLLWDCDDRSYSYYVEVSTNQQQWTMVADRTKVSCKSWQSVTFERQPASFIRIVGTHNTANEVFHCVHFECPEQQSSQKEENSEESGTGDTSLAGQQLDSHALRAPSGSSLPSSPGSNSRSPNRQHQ
Text: as §1

[4] = molecular target: T4, Q9H0C5 (Homo sapiens, UniProt Q9H0C5)
T4 construct: 200 μL of lysate containing 5 mg/ml proteome was treated with 2 μL of 100× compound stock; endogenous in cells
T4 sequence (Q9H0C5 1-482): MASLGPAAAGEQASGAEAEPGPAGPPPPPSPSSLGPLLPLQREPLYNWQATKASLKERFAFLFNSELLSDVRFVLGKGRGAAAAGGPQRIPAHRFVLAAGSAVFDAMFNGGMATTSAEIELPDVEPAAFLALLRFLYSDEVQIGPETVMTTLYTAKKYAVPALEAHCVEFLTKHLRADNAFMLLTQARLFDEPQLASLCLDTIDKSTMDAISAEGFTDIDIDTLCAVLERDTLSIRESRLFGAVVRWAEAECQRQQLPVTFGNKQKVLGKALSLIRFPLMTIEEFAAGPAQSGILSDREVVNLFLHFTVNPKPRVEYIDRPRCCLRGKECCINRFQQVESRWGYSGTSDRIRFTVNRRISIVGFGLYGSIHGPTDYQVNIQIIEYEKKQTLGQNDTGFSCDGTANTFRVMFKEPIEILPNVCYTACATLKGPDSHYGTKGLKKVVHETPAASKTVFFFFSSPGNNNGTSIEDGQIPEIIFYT
Text: as §1

[5] = molecular target: T5, Q9BSF8 (Homo sapiens, UniProt Q9BSF8)
T5 construct: 200 μL of lysate containing 5 mg/ml proteome was treated with 2 μL of 100× compound stock; endogenous in cells
T5 sequence (Q9BSF8 whole entry): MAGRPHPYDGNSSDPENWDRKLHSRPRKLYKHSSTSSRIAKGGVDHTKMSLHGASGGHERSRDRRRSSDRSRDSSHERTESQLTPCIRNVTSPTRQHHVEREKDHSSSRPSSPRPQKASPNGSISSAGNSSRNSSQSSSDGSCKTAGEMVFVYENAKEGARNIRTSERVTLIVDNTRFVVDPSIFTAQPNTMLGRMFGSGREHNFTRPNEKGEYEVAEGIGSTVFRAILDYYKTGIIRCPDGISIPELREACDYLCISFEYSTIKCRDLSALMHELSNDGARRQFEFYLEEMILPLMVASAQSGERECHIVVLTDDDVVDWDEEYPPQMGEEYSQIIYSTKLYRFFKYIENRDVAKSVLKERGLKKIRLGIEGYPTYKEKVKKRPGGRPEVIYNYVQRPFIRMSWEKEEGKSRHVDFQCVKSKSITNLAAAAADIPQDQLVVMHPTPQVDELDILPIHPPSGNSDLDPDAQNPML
Text: as §1

[6] = molecular target: T6, Q9Y297 (Homo sapiens, UniProt Q9Y297)
T6 construct: 200 μL of lysate containing 5 mg/ml proteome was treated with 2 μL of 100× compound stock; endogenous in cells
T6 sequence (Q9Y297 whole entry): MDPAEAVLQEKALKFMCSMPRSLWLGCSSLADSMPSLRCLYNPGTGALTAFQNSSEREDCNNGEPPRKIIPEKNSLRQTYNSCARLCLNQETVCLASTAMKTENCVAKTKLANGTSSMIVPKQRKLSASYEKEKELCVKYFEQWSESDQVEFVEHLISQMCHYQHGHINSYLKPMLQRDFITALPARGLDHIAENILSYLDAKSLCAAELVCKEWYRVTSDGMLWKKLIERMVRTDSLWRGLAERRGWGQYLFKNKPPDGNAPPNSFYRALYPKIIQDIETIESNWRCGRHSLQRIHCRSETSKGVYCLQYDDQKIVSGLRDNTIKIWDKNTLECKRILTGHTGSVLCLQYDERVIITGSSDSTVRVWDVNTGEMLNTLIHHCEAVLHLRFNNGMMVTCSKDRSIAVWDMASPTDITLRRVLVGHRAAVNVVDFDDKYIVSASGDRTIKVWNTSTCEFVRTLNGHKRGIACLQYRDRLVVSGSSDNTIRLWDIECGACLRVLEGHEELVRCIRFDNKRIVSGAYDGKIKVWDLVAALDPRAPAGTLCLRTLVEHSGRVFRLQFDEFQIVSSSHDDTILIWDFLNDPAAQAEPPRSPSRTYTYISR
Text: as §1

[7] = molecular target: T7, Q9UJX4 (Homo sapiens, UniProt Q9UJX4)
T7 construct: Cells were resuspended in cold PBS on ice and sonicated with a probe sonicator to achieve lysis; endogenous in cells
T7 sequence (Q9UJX4 whole entry): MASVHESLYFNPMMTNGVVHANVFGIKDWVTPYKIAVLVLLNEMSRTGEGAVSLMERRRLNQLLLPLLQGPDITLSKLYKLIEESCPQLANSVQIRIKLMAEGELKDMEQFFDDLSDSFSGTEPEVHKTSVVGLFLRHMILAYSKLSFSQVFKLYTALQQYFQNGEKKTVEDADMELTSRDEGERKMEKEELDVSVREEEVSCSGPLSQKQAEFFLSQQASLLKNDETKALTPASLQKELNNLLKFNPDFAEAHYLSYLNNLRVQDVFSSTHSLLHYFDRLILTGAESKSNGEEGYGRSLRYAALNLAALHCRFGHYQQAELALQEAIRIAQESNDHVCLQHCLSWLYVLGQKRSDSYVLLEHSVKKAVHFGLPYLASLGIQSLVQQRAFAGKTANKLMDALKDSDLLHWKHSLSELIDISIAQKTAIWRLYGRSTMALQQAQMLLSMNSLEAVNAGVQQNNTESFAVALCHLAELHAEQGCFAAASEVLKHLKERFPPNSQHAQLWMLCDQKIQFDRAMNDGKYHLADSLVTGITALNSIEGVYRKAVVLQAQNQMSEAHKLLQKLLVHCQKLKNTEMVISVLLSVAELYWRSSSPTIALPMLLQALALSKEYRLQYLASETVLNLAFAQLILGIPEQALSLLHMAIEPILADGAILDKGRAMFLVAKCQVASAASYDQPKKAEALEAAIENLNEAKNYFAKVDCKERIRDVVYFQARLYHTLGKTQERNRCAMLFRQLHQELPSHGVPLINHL
Text: as §1

[8] = read-out: KB02_500 uM_percent_inhibition
[9] = read-out: KB05_100 uM_percent_inhibition
[10] = 100 uM, read-out: KB05_100 uM_percent_inhibition
[11] = 500 uM, read-out: KB05_500 uM_percent_inhibition

## COc1ccc2c(c1)CCCN2C(=O)CCl [KB02]
[1]; 100 uM
  KB02_100 uM_percent_inhibition: 21%
[1]; read-out: KB02_100 uM_percent_inhibition
  inhibition at 100 µM: 24%
[2]; 500 uM
  KB02_500 uM_percent_inhibition: 17%
[2]; [8]
  inhibition at 500 µM: 12%
[3]; 500 uM
  KB02_500 uM_percent_inhibition: 45%
[3]; [8]
  inhibition at 500 µM: 54%
[4]; 100 uM, read-out: KB02_100 uM_percent_inhibition
  inhibition at 100 µM: 9%

## C=CC(=O)N(c1ccccc1)c1ccc(Br)cc1 [KB05]
[1]; [9]
  inhibition at 100 µM: 29%
[3]; read-out: KB05_500 uM_percent_inhibition
  inhibition at 500 µM: 65%
[5]; [10]
  inhibition at 100 µM: 27%
[5]; 500 uM
  KB05_500 uM_percent_inhibition: 53%
[5]; [11]
  inhibition at 500 µM: 37%
[6]; [9]
  inhibition at 100 µM: 43%
[7]; [10]
  inhibition at 100 µM: 9%
[7]; [11]
  inhibition at 500 µM: 74%
[4]; 500 uM
  KB05_500 uM_percent_inhibition: 36%
[4]; [11]
  inhibition at 500 µM: 56%

## O=C(CCl)Nc1cc(C(F)(F)F)cc(C(F)(F)F)c1 [KBO3]
[2]; 500 uM
  KB03_500 uM_percent_inhibition: 13%
[5]; 100 uM
  KB03_100 uM_percent_inhibition: 29%
[6]; 100 uM
  KB03_100 uM_percent_inhibition: 54%
[7]; 100 uM
  KB03_100 uM_percent_inhibition: 31%
